Source: patent publication US4834982A, “Potassium-neutral salureticum with anti-hypertensive effect” (priority 1987, dated 1989)
“And” between values parts separate entries of the source, which are not always exact repeats. Identical values can stand only once. Like-named read-outs stand apart in the source and are kept apart here. One block for each molecule: values may come before it.

What was measured:
[1] = in vivo; cited from earlier work
[2] = critical micelle concentration / equilibrium surface tension measurements; assay type: physicochemical; settings: substances separately, 37° C.
Excerpt: Since the interfacial molecular areas can be determined from the slopes of equilibrium surface tensions measurements from FIG. A,B, just below the break points, they are easy to compare.

[3] = contact angle measurements; assay type: physicochemical
[4] = cited from earlier work
[5] = solubility of furosemide and triamterene; assay type: physicochemical
[6] = solubilization and binding thermodynamics of furosemide in triamterene micelles; assay type: physicochemical
[7] = solute permeability of ions on artificial membranes; settings: 0.30 mM
[8] = 50 mg/day or 100 mg/day triamterene with 40 mg/day furosemide; cited from earlier work
[9] = 40 mg furosemide, normal volunteers; cited from earlier work

SMILES: CCCCNc1cc(C(=O)O)cc(S(N)(=O)=O)c1Oc1ccccc1 [bumetanide]
- half life time t1/2 [1]: about 1 h

- critical micelle concentration (CMC) [2]: 83 µM
- contact angle [3]: 59 deg.
- contact angle ([3]; complexing to stearate, phthalate, etc.): 108 deg
SMILES: NS(=O)(=O)c1cc(C(=O)O)c(NCc2ccco2)cc1Cl [furosemide]

SMILES: Nc1nc(N)c2nc(-c3ccc(OS(=O)(=O)O)cc3)c(N)nc2n1 [hydroxy-triamterene-sulfuric acid ester]
- plasma concentration relative to triamterene ([4]; intravenous, simultaneous with furosemide): about ten
- potassium loss caused by furosemide ([4]; simultaneous intravenous administration with furosemide): can be impeded

SMILES: NS(=O)(=O)c1cc(C(=O)O)cc(N2CCCC2)c1Oc1ccccc1 [peritanide]
- half life time t1/2 [1]: about 1 h

- solubility ([5]; 37° C., molar equivalent): 0.0001184 mol/L
- solubility ([5]; 37° C., molar equivalent in parentheses): 0,11 mMol
- solubility ([5]; molar, read-out: solubility): 0.000118 mol/L
- solubility ([5]; pH 5.5, read-out: solubility): 30 µg/mL
- solubility ([5]; pH 9-11.0): 5 µg/mL
- critical micelle concentration (CMC) [2]: 15 µM
- contact angle [3]: 100 deg.
- K(T) of triamterene micelle, times smaller than for a furosemide micelle [6]: roughly 15 times
- limiting value of n (aggregation number of triamterene micelles) ([6]; pH 2.5): 15
- limiting value of n (aggregation number of triamterene micelles) ([6]; pH 7.9): 25
- triamterene molecules required to solubilize furosemide (controlled release form of furosemide at basic pH): 320-350 molecules
SMILES: Nc1nc(N)c2nc(-c3ccccc3)c(N)nc2n1 [triamterene]
- Solute permeability K (Cl) ([7]; compartment A): 170,3 ± 10,0 mol·s^-1·N^-1
- Solute permeability Na (Cl) ([7]; compartment A): 111,2 ± 12,0 mol·s^-1·N^-1
- Solute permeability K (Cl) ([7]; compartment B): 90,5 ± 5,0 mol·s^-1·N^-1
- Solute permeability Na (Cl) ([7]; compartment B): 207,4 ± 8,0 mol·s^-1·N^-1
- triamterene molecules required to solubilize furosemide and furosemide in controlled release form (molar basis): 298 molecules and 320 molecules and 324 molecules
- natriuretic effect [8]: agument the natriuretic effect
- oral dose required to block the kaliuretic effect of furosemide [9]: 50 mg and 100 mg
- half life time t1/2 [1]: 3.0 h
